Experiment [1] has as its system IL-1β p17 in cerebrospinal fluid. Kind of experiment: Rat central nervous system IL-1β production test. It counts as in vivo. Conditions: male Wistar rats, oral, LPS and BzATP in cisterna magna. As to the method:
Rat Central Nervous System IL-1β Production Test
Male Wistar rats of 10-14 weeks old were administered with 12.5 μg/5 μL LPS (SIGMA, L2880) in the cisterna magna under isoflurane anesthesia. Two hours later, a test compound was orally administered. Further one hour later, 50 μg/5 μL BzATP (2′(3′)—O-(4-benzoylbenzoyl)adenosine 5′-triphosphate triethylammonium salt, SIGMA, B6396) was administered in the cisterna magna. Thirty minutes later, the cerebrospinal fluid was collected. The cerebrospinal fluid was subjected to Western blotting using an anti-IL-1β antibody (Millipore, AB1832P) to measure IL-1β p17, and then, the suppression rate thereof relative to the solvent-administered group was calculated.
In the Table, Dose refers to a dosage amount of each test compound, and Ex59, Ex75, Ex131, Ex132 and Ex164 represent Example 59, Example 75, Example 131, Example 132 and Example 164, respectively. It was confirmed that the compounds have inhibitory effects on IL-1β production.

The test system of experiment [2] is IL-1β production in THP-1 cells (LPS and ATP; NLRP3 inflammasome activation). Briefly: THP-1 IL-1β production inhibitory test. Conditions: read-out: IC50 (nM), IL-1β production. It counts as cell-based, human. As to the method:
THP-1 IL-1β Production Inhibitory Test
To THP-1 cells, 50 ng/mL PMA (phorbol myristate acetate, SIGMA, P1585) was added at 37° C. and then the cells were cultured for 2 days. […] The cells were cultured at 37° C. for 15 minutes. LPS (lipopolysaccharide, SIMGA, L2880) and ATP (adenosine triphosphate, SIGMA, A2383) were added such that the final concentrations of them became 50 ng/mL and 5 mM, respectively. The cells were cultured at 37° C. for 2 hours. The supernatant was collected and the concentration of IL-1β was measured by ELISA (DuoSet ELISA human IL-1β, R&D Systems, DY201). The concentration of IL-1β was plotted against the logarithm of the concentration of the test compound, and the IC50 value was calculated by sigmoidal Emax model nonlinear regression analysis.

Where [3] appears, read: Homo sapiens, THP-1, 2 h, PMA-differentiated THP-1 cells, LPS 50 ng/mL and ATP 5 mM, 2 hours, ELISA.

Where a name gives a salt, the structure may show the parent alone. Read-outs that look alike come from different tables or passages of the source.

On to `COc1ccc(-c2nnc(N[C@@H]3CCCC[C@H]3O)nc2C)c(O)c1` [Ex59], for which the “suppression rate of IL-1β p17 relative to the solvent-administered group” value in experiment [1] (Dose 0.3 mg/kg) is listed as 45%; in experiment [1] (Dose 1 mg/kg), 54%; in experiment [1] (Dose 3 mg/kg), 85%. For the compound `Cc1nc(N[C@@H]2CCC[C@H](O)C2)nnc1-c1ccc(C(F)(F)F)cc1O` [Ex75], the “suppression rate of IL-1β p17 relative to the solvent-administered group” value in experiment [1] (Dose 0.3 mg/kg) came out at 12%; in experiment [1] (Dose 1 mg/kg) it was 73%; in experiment [1] (Dose 3 mg/kg), 100%. `Cc1nc(N[C@@H]2CCCC[C@H]2O)nnc1-c1ccc(OC(F)F)cc1O` [Ex131]: the results for the “suppression rate of IL-1β p17 relative to the solvent-administered group” value in experiment [1] (Dose 0.3 mg/kg), in experiment [1] (Dose 1 mg/kg) and in experiment [1] (Dose 3 mg/kg) were −33%, −54% and 61%, respectively.

Turning to `Cc1nc(N[C@@H]2CCCC[C@H]2N)nnc1-c1ccc(C(F)(F)F)cc1O` [Ex132], the “suppression rate of IL-1β p17 relative to the solvent-administered group” value is given as −3.7%^ in experiment [1] (Dose 0.3 mg/kg), 88% in experiment [1] (Dose 1 mg/kg) and 88% in experiment [1] (Dose 3 mg/kg). Turning to `Cc1nc(N[C@@H]2CCCN(C)C2)nnc1-c1ccc(C(F)(F)F)cc1O` [Ex164], the “suppression rate of IL-1β p17 relative to the solvent-administered group” value in experiment [1] (Dose 0.3 mg/kg) came out at 67%; in experiment [1] (Dose 1 mg/kg), 81%; in experiment [1] (Dose 3 mg/kg) it was 80%. With `CC(=O)N[C@@H]1CCCC[C@H]1Nc1nnc(-c2ccc(C(F)(F)F)cc2O)c(C)n1` [Example 152, N-[(1R,2R)-2-({6-[2-hydroxy-4-(trifluoromethyl)phenyl]-5-methyl-1,2,4-triazin-3-yl}amino)cyclohexyl]acetamide], the 50% inhibitory concentration (IC50) in experiment [2] (setting [3]) was found to be 22 nM. For `CC(=O)N1CCC[C@@H](CNc2nnc(-c3ccc(C(F)(F)F)cc3O)c(C)n2)C1` [Example 153], in experiment [2] (setting [3]), the half-maximal inhibitory concentration (IC50) is 7.8 nM.

Regarding `CC(=O)N1CCC[C@@H](Nc2nnc(-c3ccc(C(F)(F)F)cc3O)c(C)n2)C1` [Example 154], in experiment [2] (setting [3]), the 50% inhibitory concentration (IC50) turned out to be 31 nM.

As for `CC(=O)N1CCO[C@@H](CNc2nnc(-c3ccc(C(F)(F)F)cc3O)c(C)n2)C1` [Example 155], the half-maximal inhibitory concentration (IC50) in experiment [2] (setting [3]) was 370 nM.

Take `CC(=O)N[C@H]1C[C@H](CNc2nnc(-c3ccc(C(F)(F)F)cc3O)c(C)n2)C1` [Example 156]: the IC50 in experiment [2] (setting [3]) came to 23 nM. In the case of `CC(=O)N[C@H]1C[C@@H](CNc2nnc(-c3ccc(C(F)(F)F)cc3O)c(C)n2)C1` [Example 157], in experiment [2] (setting [3]), the 50% inhibitory concentration (IC50) worked out at 5.7 nM. For the compound `CC(=O)N1CCOC[C@@H]1CNc1nnc(-c2ccc(C(F)(F)F)cc2O)c(C)n1` [Example 158], in experiment [2] (setting [3]), the half-inhibitory concentration (IC50) was determined as 850 nM. The same measure, in the same setting: for `CC(=O)N1CC[C@@H](Nc2nnc(-c3ccc(C(F)(F)F)cc3O)c(C)n2)[C@H](O)C1` [Example 159, 1-[(3R,4R)-3-hydroxy-4-({6-[2-hydroxy-4-(trifluoromethyl)phenyl]-5-methyl-1,2,4-triazin-3-yl}amino)piperidin-1-yl]ethan-1-one] the value was 120 nM; for `Cc1nc(N[C@@H]2CN(S(C)(=O)=O)C[C@H]2O)nnc1-c1ccc(C(F)(F)F)cc1O` [Example 160, (3R,4R)-4-({6-[2-hydroxy-4-(trifluoromethyl)phenyl]-5-methyl-1,2,4-triazin-3-yl}amino)-1-(methanesulfonyl)pyrrolidin-3-ol], 210 nM; for `Cc1nc(N[C@@H]2CCN(CCO)C2)nnc1-c1ccc(C(F)(F)F)cc1O` [Example 161, 2-(3-{[(3R)-1-(2-hydroxyethyl)pyrrolidin-3-yl]amino}-5-methyl-1,2,4-triazin-6-yl)-5-(trifluoromethyl)phenol], 70 nM. Turning to `Cc1nc(N[C@@H]2CN(C)C[C@H]2O)nnc1-c1ccc(C(F)(F)F)cc1O` [Example 162], the IC50 in experiment [2] (setting [3]) came to 350 nM. In the case of `CC(=O)N1C[C@@H](O)[C@H](Nc2nnc(-c3ccc(C(F)(F)F)cc3O)c(C)n2)C1` [Example 163, 1-[(3R,4R)-3-hydroxy-4-({6-[2-hydroxy-4-(trifluoromethyl)phenyl]-5-methyl-1,2,4-triazin-3-yl}amino)pyrrolidin-1-yl]ethan-1-one], the IC50 in experiment [2] (setting [3]) was determined as 640 nM. Turning to `Cc1cc(C(F)(F)F)cc(O)c1-c1nnc(N[C@@H]2CCCC[C@H]2O)nc1C` [Example 165], the IC50 in experiment [2] (setting [3]) worked out at 6.7 nM. Still for that read-out and setting: as for `Cc1nc(N[C@@H]2CCC[C@@H](O)C2)nnc1-c1ccc(C(F)(F)F)cc1O` [Example 166], the figure is 23 nM. The same measure, in the same setting: as for `Cc1nc(N[C@H]2CCC[C@@H](O)C2)nnc1-c1ccc(C(F)(F)F)cc1O` [Example 167], the figure is 580 nM; as for `COc1ccc(-c2nnc(N[C@@H]3CCC[C@H](O)C3)nc2C)c(O)c1` [Example 168], 26 nM; as for `Cc1nc(N[C@@H]2CCCC[C@H]2O)nnc1-c1cc(F)c(C(F)(F)F)cc1O` [Example 169], 38 nM. The same measure, in the same setting: as for `Cc1nc(NC2CNCCC23CC3)nnc1-c1ccc(C(F)(F)F)cc1O` (centres unmarked) [Example 170], the figure is 390 nM.

`Cc1nc(NCC2(N)CCOCC2)nnc1-c1ccc(C(F)(F)F)cc1O` [Example 171]: the IC50 in experiment [2] (setting [3]) worked out at 240 nM.

As for `Cc1nc(N[C@@H]2CCCN(C3CNC3)C2)nnc1-c1ccc(C(F)(F)F)cc1O` [Example 172], the IC50 in experiment [2] (setting [3]) was 35 nM. The same measure, in the same setting: as for `Cc1nc(NC2CCC(C(N)=O)NC2)nnc1-c1ccc(C(F)(F)F)cc1O` (centres unmarked) [Example 173], the figure is 58 nM; as for `Cc1nc(N[C@@H]2CCC[C@H](O)C2)nnc1-c1ccc(C(F)F)cc1O` [Example 175], 24 nM; as for `Cc1nc(N[C@@H]2CCC[C@H](O)C2)nnc1-c1cc(F)c(C(F)(F)F)cc1O` [Example 176], 43 nM. For `Cc1nc(N[C@@H]2CCCC[C@H]2N(C)C)nnc1-c1ccc(C(F)(F)F)cc1O` [Example 177], the 50% inhibitory concentration (IC50) in experiment [2] (setting [3]) amounted to 48 nM.

As to `Cc1nc(N[C@@H]2CCCN(CC3CC3)C2)nnc1-c1ccc(C(F)(F)F)cc1O` [Example 178], the half-inhibitory concentration (IC50) in experiment [2] (setting [3]) was 4.2 nM. Still for that read-out and setting: as for `Cc1nc(N[C@@H]2CCCN(C3COC3)C2)nnc1-c1ccc(C(F)(F)F)cc1O` [Example 179], the figure is 19 nM. On to `Cc1nc(N[C@H]2CN(C)CCC2(F)F)nnc1-c1ccc(C(F)(F)F)cc1O` [Example 180], for which the IC50 in experiment [2] (setting [3]) is 180 nM. The same measure, in the same setting: as for `Cc1nc(N[C@@H]2CCCN(CCC#N)C2)nnc1-c1ccc(C(F)(F)F)cc1O` [Example 181, 3-[(3R)-3-({6-[2-hydroxy-4-(trifluoromethyl)phenyl]-5-methyl-1,2,4-triazin-3-yl}amino)piperidin-1-yl]propanenitrile], the figure is 12 nM. Consider `Cc1nc(N[C@@H]2CC[C@H](C(=O)O)C2)nnc1-c1ccc(C(F)(F)F)cc1O` [Example 182, (1S,3R)-3-({6-[2-hydroxy-4-(trifluoromethyl)phenyl]-5-methyl-1,2,4-triazin-3-yl}amino)cyclopentane-1-carboxylic acid], for which the IC50 in experiment [2] (setting [3]) is 67 nM.

Turning to `Cc1nc(N[C@@H]2CCCN(CC(=O)O)C2)nnc1-c1ccc(C(F)(F)F)cc1O` [Example 183], the half-maximal inhibitory concentration (IC50) in experiment [2] (setting [3]) is 150 nM. On to `COc1ccc(-c2nnc(N[C@@H]3CCCC[C@H]3O)nc2C)c(O)c1` [Example 184, 2-(3-{[(1R,2R)-2-hydroxycyclohexyl]amino}-5-methyl-1,2,4-triazin-6-yl)-5-methoxyphenol monohydrochloride], for which, in experiment [2] (Homo sapiens, THP-1, 2 h), the IC50 worked out at 5.8 nM.

For `Cc1nc(N[C@@H]2CCC[C@H](O)C2)nnc1-c1ccc(C(F)(F)F)cc1O` [Example 185, 2-(3-{[(1R,3S)-3-hydroxycyclohexyl]amino}-5-methyl-1,2,4-triazin-6-yl)-5-(trifluoromethyl)phenol monohydrochloride], in experiment [2] (Homo sapiens, THP-1, 2 h), the concentration for half-maximal inhibition (IC50) amounted to 5.2 nM. Still for that read-out and setting: for `Cc1nc(N[C@@H]2CCCC[C@H]2O)nnc1-c1ccc(OC(F)F)cc1O` [Example 186, 5-(difluoromethoxy)-2-(3-{[(1R,2R)-2-hydroxycyclohexyl]amino}-5-methyl-1,2,4-triazin-6-yl)phenol monohydrochloride] the value was 11 nM.

`Cc1nc(N[C@@H]2CCCN(C)C2)nnc1-c1ccc(C(F)(F)F)cc1O` [Example 187, 2-(5-methyl-3-{[(3R)-1-methylpiperidin-3-yl]amino}-1,2,4-triazin-6-yl)-5-(trifluoromethyl)phenol dihydrochloride]: in experiment [2] (setting [3]), the 50% inhibitory concentration (IC50) was determined as 1.3 nM.

`Cc1nc(N[C@@H]2CCCC[C@H]2N)nnc1-c1ccc(C(F)(F)F)cc1O` [Example 188, 2-(3-{[(1R,2R)-2-aminocyclohexyl]amino}-5-methyl-1,2,4-triazin-6-yl)-5-(trifluoromethyl)phenol dihydrochloride]: the IC50 in experiment [2] (PMA-differentiated THP-1 cells, LPS 50 ng/mL and ATP 5 mM, 2 hours, ELISA, dihydrochloride) amounted to 21 nM.

What is called IC50 is the midpoint of a concentration-inhibition curve.

The values above are taken from US12692241B2, “Substituted triazine compound” (Nico Therapeutics, Inc., priority 2021, dated 2026).
